Test results from ChEMBL document CHEMBL1955728, “3,5-Disubstituted indole derivatives as selective human neuronal nitric oxide synthase (nNOS) inhibitors” (Bioorg Med Chem Lett, 2012).
pIC50: −log10 of the molar value. Calls of active or inactive are those of the source. The calls are words filed in the database; no cut-off is given here.

Legend:
Cytochrome P450 3A4 = Cytochrome P450 3A4 (Homo sapiens, UniProt P08684); assay: Inhibition of human CYP3A4; type: ADME
Cytochrome P450 2D6 = Cytochrome P450 2D6 (Homo sapiens, UniProt P10635); assay: Inhibition of human CYP2D6; type: ADME
Nitric oxide synthase 3 = target: T1, Nitric oxide synthase 3 (Homo sapiens, UniProt P29474); assay: Inhibition of human eNOS expressed in baculovirus infected insect Sf9 cells assessed as conversion of [3H]-L-arginine to [3H]-L-citrulline
T1 sequence (P29474 whole entry): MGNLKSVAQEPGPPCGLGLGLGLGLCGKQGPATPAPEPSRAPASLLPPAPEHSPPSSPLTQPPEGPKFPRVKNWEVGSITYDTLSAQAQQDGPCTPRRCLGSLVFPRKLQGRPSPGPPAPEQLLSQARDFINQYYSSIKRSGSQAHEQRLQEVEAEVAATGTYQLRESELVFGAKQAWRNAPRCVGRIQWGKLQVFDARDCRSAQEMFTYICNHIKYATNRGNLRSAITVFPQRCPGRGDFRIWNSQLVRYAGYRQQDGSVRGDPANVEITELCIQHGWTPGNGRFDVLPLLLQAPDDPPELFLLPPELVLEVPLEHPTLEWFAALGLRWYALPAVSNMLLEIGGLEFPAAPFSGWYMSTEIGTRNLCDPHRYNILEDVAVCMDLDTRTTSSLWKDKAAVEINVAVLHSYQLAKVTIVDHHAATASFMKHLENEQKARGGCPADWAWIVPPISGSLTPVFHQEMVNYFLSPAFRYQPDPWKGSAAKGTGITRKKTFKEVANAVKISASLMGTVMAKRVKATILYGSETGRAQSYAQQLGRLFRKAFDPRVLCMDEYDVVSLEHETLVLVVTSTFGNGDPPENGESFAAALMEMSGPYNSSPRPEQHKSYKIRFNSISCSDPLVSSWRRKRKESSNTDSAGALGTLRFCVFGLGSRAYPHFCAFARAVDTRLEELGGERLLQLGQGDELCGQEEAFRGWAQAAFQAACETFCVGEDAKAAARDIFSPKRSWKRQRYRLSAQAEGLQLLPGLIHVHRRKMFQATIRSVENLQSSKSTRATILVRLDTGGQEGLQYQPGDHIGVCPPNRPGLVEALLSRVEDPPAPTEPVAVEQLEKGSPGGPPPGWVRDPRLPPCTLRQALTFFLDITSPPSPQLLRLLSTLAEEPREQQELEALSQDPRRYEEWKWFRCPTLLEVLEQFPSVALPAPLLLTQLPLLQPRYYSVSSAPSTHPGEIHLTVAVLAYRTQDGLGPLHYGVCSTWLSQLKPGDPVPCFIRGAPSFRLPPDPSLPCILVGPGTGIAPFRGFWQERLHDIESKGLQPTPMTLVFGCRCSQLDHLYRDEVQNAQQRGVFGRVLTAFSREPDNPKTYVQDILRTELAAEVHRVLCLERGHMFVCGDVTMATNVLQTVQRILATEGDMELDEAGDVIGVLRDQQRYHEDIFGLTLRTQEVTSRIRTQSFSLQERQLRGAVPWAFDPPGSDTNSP

[1] = Vasoconstrictive activity in human arteries assessed as inhibition of acetylcholine-induced vasorelaxation at 10 uM in presence of thromboxane A2 mimetic agent U46619; type: tissue-based, Artery
Cytochrome P450 2C19 = Cytochrome P450 2C19 (Homo sapiens, UniProt P33261); assay: Inhibition of human CYP2C19; type: ADME
Nitric oxide synthase 1 [2] = target: Nitric oxide synthase 1 (Homo sapiens, UniProt P29475); assay: Inhibition of human nNOS expressed in baculovirus infected insect Sf9 cells assessed as conversion of [3H]-L-arginine to [3H]-L-citrulline
Cytochrome P450 1A2 = target: T2, Cytochrome P450 1A2 (Homo sapiens, UniProt P05177); assay: Inhibition of human CYP1A2; type: ADME
T2 sequence (P05177 whole entry): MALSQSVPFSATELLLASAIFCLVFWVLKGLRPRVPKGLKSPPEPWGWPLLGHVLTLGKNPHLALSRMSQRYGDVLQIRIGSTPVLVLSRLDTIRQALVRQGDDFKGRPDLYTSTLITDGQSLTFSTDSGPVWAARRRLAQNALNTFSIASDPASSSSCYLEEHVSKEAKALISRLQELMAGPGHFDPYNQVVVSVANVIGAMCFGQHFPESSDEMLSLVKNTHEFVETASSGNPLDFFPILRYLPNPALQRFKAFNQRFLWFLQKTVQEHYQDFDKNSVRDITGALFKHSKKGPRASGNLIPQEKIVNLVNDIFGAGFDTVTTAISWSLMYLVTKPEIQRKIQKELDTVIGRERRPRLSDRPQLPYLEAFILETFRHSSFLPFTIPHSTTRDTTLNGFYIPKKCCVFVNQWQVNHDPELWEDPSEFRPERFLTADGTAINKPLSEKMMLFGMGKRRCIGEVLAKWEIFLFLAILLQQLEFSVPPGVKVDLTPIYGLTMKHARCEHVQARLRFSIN

Nitric oxide synthase 1 [3] = target: Nitric oxide synthase 1 (Rattus norvegicus, UniProt P29476); assay: Inhibition of rat nNOS
Cytochrome P450 2C9 = Cytochrome P450 2C9 (Homo sapiens, UniProt P11712); assay: Inhibition of human CYP2C9; type: ADME
Rattus norvegicus [4] = assay: Antihyperalgesic activity in rat L5/L6 SNL model of neuropathic pain assessed as reversal of thermal hyperalgesia at 10 mg/kg, ip measured after 30 mins; type: functional; settings: route intraperitoneal
[5] = target: Nitric oxide sythases; iNOS & nNOS (Homo sapiens) (UniProt P29475+P35228); assay: Selectivity ratio of IC50 for human iNOS to IC50 for human nNOS
Homo sapiens = species on record: Homo sapiens; assay: Selectivity ratio of IC50 for human eNOS to IC50 for human nNOS
[6] = target: Nitric oxide synthase, inducible (Homo sapiens, UniProt P35228); assay: Inhibition of human iNOS expressed in baculovirus infected insect Sf9 cells assessed as conversion of [3H]-L-arginine to [3H]-L-citrulline
Rattus norvegicus [7] = assay: Antihyperalgesic activity in rat L5/L6 SNL model of neuropathic pain assessed as reversal of thermal hyperalgesia at 10 mg/kg, ip measured after 30 to 120 mins; type: functional, organism-based; parameters: dose 10 mg/kg

Nitric oxide sythases; iNOS & nNOS (Homo sapiens), sequence (P29475 whole entry, looked up): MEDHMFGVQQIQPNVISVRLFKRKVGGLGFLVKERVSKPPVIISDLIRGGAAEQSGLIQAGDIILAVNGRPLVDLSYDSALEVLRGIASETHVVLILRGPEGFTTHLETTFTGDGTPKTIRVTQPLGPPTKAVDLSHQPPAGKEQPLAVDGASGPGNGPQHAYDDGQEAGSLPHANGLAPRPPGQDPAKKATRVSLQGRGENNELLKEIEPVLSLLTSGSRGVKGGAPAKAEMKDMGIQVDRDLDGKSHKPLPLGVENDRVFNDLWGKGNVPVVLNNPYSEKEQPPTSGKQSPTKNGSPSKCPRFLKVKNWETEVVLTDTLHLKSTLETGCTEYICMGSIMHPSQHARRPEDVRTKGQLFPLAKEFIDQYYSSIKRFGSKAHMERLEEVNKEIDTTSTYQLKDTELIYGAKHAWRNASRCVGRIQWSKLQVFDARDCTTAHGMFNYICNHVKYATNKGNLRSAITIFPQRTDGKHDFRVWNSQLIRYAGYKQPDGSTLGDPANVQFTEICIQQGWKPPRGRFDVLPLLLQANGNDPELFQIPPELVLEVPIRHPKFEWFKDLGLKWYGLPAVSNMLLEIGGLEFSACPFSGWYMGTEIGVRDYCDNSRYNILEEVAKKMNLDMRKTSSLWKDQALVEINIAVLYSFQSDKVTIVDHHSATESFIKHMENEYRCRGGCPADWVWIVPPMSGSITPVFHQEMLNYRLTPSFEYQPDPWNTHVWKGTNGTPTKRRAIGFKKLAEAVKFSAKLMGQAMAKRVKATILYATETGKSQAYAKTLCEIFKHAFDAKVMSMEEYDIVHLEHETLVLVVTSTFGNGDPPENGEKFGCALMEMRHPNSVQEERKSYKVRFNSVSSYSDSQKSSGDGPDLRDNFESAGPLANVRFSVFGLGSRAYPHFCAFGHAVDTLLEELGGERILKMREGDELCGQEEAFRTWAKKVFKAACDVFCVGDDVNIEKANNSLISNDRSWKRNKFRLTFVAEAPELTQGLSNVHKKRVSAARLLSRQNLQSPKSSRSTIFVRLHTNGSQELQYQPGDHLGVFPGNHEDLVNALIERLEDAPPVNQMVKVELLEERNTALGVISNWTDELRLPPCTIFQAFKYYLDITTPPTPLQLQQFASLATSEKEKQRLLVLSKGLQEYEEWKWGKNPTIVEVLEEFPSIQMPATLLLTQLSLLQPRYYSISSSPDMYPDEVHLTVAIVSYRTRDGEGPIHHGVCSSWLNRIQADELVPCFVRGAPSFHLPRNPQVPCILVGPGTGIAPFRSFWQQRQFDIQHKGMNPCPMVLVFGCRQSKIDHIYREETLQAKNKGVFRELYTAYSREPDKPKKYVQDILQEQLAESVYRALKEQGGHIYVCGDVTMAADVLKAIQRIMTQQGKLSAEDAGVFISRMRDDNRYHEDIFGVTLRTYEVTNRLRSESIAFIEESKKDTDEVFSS
Nitric oxide sythases; iNOS & nNOS (Homo sapiens), sequence (P35228 whole entry, looked up): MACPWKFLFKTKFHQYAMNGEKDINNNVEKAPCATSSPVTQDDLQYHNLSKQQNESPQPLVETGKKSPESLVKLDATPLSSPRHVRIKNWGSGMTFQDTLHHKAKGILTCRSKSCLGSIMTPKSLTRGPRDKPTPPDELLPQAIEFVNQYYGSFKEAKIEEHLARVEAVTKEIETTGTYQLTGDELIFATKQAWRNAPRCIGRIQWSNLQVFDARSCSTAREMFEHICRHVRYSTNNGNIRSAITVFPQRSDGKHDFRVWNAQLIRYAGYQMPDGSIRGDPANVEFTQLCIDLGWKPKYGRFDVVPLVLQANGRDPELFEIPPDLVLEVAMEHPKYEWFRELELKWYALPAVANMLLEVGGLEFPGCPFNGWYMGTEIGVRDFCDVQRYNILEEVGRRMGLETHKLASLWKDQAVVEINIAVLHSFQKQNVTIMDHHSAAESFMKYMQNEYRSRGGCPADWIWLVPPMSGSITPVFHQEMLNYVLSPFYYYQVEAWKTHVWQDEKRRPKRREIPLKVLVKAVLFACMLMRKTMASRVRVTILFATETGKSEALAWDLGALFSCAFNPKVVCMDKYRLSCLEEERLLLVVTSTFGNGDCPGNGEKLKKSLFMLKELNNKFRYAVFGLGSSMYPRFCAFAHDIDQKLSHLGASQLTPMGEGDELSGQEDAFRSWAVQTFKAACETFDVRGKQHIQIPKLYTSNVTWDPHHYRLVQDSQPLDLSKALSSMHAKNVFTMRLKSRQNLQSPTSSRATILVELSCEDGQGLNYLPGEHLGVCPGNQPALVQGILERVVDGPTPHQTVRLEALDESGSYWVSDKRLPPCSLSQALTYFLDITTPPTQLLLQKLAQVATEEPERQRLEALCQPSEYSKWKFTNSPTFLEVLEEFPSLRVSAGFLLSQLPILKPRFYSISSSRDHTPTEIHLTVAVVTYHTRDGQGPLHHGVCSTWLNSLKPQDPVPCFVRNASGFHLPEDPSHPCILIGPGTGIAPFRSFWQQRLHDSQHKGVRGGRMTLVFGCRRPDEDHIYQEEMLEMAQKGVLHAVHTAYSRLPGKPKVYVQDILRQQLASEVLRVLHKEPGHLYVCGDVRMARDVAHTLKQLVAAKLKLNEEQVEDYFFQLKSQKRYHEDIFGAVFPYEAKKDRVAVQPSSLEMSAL
Nitric oxide synthase 1 (Homo sapiens, UniProt P29475), sequence (P29475 whole entry): as the sequence (P29475 whole entry, looked up) above
Nitric oxide synthase, inducible, sequence (P35228 whole entry): as the sequence (P35228 whole entry, looked up) above
Nitric oxide synthase 1 (Rattus norvegicus, UniProt P29476), sequence (P29476 whole entry): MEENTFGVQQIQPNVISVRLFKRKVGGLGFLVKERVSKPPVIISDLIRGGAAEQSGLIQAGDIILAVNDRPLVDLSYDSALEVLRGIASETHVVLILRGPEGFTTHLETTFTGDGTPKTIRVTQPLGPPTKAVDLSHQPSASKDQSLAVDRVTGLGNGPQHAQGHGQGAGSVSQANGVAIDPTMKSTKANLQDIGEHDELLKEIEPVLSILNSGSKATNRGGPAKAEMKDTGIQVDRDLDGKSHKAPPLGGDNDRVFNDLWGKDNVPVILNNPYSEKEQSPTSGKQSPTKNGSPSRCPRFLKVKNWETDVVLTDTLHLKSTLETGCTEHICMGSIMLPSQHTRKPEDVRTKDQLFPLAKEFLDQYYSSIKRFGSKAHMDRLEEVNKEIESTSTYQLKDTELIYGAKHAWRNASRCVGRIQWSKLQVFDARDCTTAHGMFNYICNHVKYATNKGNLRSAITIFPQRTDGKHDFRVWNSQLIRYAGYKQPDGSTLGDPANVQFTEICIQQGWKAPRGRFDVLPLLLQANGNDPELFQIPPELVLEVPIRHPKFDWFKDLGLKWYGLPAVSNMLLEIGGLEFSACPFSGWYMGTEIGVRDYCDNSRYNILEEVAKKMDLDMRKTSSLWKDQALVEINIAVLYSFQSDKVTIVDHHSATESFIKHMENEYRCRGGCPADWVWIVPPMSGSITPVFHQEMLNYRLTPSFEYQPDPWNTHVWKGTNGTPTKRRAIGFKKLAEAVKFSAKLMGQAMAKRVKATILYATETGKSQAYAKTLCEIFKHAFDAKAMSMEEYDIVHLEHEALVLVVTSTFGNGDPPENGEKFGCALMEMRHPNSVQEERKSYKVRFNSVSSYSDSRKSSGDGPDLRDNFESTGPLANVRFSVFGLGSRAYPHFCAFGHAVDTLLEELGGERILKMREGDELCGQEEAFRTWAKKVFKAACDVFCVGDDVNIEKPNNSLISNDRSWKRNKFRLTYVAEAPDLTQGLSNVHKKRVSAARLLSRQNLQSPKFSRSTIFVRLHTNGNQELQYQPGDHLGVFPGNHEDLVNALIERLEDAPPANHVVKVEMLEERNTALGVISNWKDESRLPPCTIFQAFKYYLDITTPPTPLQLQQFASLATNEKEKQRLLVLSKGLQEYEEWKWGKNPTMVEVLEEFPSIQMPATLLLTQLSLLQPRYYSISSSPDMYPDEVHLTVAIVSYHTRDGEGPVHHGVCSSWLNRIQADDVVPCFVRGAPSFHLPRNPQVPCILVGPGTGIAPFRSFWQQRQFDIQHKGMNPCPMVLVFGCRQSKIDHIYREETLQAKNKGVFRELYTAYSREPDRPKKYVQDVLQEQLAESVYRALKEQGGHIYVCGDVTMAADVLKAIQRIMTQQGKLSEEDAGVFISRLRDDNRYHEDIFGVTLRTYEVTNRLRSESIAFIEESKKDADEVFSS
Cytochrome P450 2D6, sequence (P10635 whole entry): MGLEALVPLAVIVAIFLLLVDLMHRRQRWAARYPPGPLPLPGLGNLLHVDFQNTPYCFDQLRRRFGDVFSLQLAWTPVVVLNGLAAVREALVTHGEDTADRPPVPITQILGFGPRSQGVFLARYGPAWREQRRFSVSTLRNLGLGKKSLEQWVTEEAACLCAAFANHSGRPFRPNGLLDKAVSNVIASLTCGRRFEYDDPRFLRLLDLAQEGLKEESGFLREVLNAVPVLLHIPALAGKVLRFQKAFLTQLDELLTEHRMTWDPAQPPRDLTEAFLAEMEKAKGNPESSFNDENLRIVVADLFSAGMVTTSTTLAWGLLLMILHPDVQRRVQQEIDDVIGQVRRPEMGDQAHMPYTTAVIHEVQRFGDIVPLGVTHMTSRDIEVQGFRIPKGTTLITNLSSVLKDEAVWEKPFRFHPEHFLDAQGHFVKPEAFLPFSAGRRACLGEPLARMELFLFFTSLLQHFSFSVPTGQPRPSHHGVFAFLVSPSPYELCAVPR
Cytochrome P450 3A4, sequence (P08684 whole entry): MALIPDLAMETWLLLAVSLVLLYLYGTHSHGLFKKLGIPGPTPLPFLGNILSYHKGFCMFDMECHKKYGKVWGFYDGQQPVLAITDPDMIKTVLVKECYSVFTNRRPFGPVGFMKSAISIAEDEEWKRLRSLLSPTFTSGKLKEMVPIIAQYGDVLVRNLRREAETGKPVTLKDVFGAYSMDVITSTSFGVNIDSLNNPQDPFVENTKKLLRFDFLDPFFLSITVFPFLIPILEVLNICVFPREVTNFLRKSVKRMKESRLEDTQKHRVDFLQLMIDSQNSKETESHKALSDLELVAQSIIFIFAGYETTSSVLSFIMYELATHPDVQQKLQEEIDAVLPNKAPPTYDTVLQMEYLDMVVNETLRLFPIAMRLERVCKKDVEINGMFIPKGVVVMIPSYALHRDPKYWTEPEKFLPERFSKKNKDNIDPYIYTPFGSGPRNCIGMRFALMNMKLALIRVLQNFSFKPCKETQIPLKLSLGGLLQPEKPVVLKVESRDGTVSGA

CN1CC=C(c2c[nH]c3ccc(NC(=N)c4ccco4)cc23)CC1.Cl.Cl
pIC50 (Cytochrome P450 3A4): < 4.00 | pIC50 (Cytochrome P450 2D6): 4.69 | pIC50 (Nitric oxide synthase 3): 4.44 | IC50 [1]: Not Active | pIC50 (Cytochrome P450 2C19): < 4.00 | pIC50 (Nitric oxide synthase 1 [2]): 6.26 | pIC50 (Cytochrome P450 1A2): 5.02 | pIC50 (Nitric oxide synthase 1 [3]): 5.59 | pIC50 (Cytochrome P450 2C9): < 4.00 | Activity (Rattus norvegicus [4]): 94%

CN1CC=C(c2c[nH]c3cc(NC(=N)c4cccs4)ccc23)CC1
Ratio IC50 [5]: 15 | Ratio IC50 (Homo sapiens): 33

CN1CCC(c2c[nH]c3ccc(/N=C(\N)c4ccco4)cc23)CC1
Ratio IC50 [5]: 48 | Ratio IC50 (Homo sapiens): 43

CCS/C(N)=N/c1ccc2[nH]cc(C3=CCN(C)CC3)c2c1
Ratio IC50 (Homo sapiens): 22

CS/C(N)=N/c1ccc2[nH]cc(C3=CCN(C)CC3)c2c1
Ratio IC50 [5]: 8 | Ratio IC50 (Homo sapiens): 16

CN1CC=C(c2c[nH]c3ccc(NC(=S)NC(=O)c4ccccc4)cc23)CC1
Ratio IC50 (Homo sapiens): 3

CN1CCC(c2c[nH]c3ccc(NC(=N)c4ccccc4)cc23)CC1
pIC50 (Nitric oxide synthase 3): 3.60 | pIC50 (Nitric oxide synthase 1 [2]): 4.74 | Ratio IC50 (Homo sapiens): 14

CN1CC=C(c2c[nH]c3ccc(/N=C(\N)c4cccs4)cc23)CC1
Ratio IC50 [5]: 105 | Ratio IC50 (Homo sapiens): 118

CN1CCC(c2c[nH]c3ccc(NC(=N)c4cccs4)cc23)CC1
pIC50 (Nitric oxide synthase 3): 4.62 | pIC50 (Nitric oxide synthase 1 [2]): 5.99

CN1CC=C(c2c[nH]c3ccc(C/N=C(\N)c4cccs4)cc23)CC1
Ratio IC50 [5]: 66 | Ratio IC50 (Homo sapiens): 50

CN1CCC(c2c[nH]c3ccc(NC(=N)c4ccco4)cc23)CC1
pIC50 [6]: 3.97

CN1CC=C(c2c[nH]c3ccc(CNC(=N)c4cccs4)cc23)CC1
pIC50 (Nitric oxide synthase 3): 4.19 | pIC50 (Nitric oxide synthase 1 [2]): 5.89

CN1CC=C(c2c[nH]c3ccc(/N=C(\N)c4ccco4)cc23)CC1
Ratio IC50 [5]: 106 | Ratio IC50 (Homo sapiens): 66 | Activity (Rattus norvegicus [7]): Active

Cc1ccc(C(=N)Nc2ccc3[nH]cc(C4=CCN(C)CC4)c3c2)s1
pIC50 (Nitric oxide synthase 3): 4.19 | pIC50 (Nitric oxide synthase 1 [2]): 4.98 | Ratio IC50 (Homo sapiens): 6

CSC(=N)Nc1ccc2[nH]cc(C3=CCN(C)CC3)c2c1
pIC50 [6]: 4.77

CN1CC=C(c2c[nH]c3ccc(NC(=N)c4cccs4)cc23)CC1
pIC50 (Nitric oxide synthase 3): 4.65 | pIC50 (Nitric oxide synthase 1 [2]): 6.72 | pIC50 (Nitric oxide synthase 1 [3]): 5.64

CN1CCC(c2c[nH]c3ccc(/N=C(\N)c4cccs4)cc23)CC1
Ratio IC50 [5]: 57
